Data reported in article PMC2770256 (Journal of molecular biology, 2009).

Target: Ypt1p (His6-Ypt1p 1-180) (Saccharomyces cerevisiae, UniProt P01123)
Test: stopped-flow fluorescence
Type: binding
Settings: pH 8.0, 25 °C, 5 mM MgCl2; labelled compound; nucleotide-free Ypt1p; association rate constant

Chain of Ypt1p (His6-Ypt1p 1-180) (P01123 1-180): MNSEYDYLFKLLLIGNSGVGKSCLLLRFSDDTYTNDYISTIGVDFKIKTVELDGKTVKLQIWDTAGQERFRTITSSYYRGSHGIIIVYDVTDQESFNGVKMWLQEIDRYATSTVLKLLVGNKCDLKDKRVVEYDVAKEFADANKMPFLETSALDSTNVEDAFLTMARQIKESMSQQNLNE

- Value: 0.096 (±0.004) μM^-1 s^-1
Structure (SMILES): CNc1ccccc1C(=O)O[C@H]1C[C@H](n2cnc3c(=O)[nH]c(N)nc32)O[C@@H]1COP(=O)(O)OP(=O)(O)O [mant-dGDP]
